Measurements from patent publication US20150105252A1, “SUBSTITUTED PYRAZOLES AS HERBICIDES” (E I DU PONT DE NEMOURS AND COMPANY, priority 2013, published 2015).

Key:
[1] = system: ryegrass, Italian; experiment: Test C preemergence; assay type: in vivo, Lolium multiflorum
How it was run: (§1)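 Herbicidal effect is expressed as percent visual control (0–100) judged against untreated plants 13 to 15 days after treatment in the greenhouse. Preemergence pots contained seeds in a soil–sand blend; postemergence plants, 2–18 cm tall, grew in peat-based planting medium.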

[2] = system: crabgrass, large; experiment: Test C preemergence; assay type: in vivo, Digitaria sanguinalis
How it was run: as §1

[3] = system: morningglory; experiment: Test A preemergence; assay type: in vivo, Ipomoea spp.; settings: preemergence; for Morningglory plant response rating (0 to 100 scale): visual injury approx. 10 days after treatment
How it was run: (§2)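 Seeds were sown in a loam soil–sand blend and given a directed soil spray preemergence; postemergence plants at 2–10 cm, one- to two-leaf stage, were sprayed with compound in non-phytotoxic solvent with surfactant. After about 10 days in a greenhouse, injury was visually rated against untreated controls (0 = no effect, 100 = complete control).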

[4] = system: velvetleaf; experiment: Test A postemergence; assay type: in vivo, Abutilon theophrasti
How it was run: as §2

[5] = system: galium; experiment: Test C preemergence; assay type: in vivo, Galium aparine
How it was run: as §1

[6] = system: morningglory; experiment: Test A postemergence; assay type: in vivo, Ipomoea spp.
How it was run: as §2

[7] = system: pigweed; experiment: Test A preemergence; assay type: in vivo, Amaranthus retroflexus; settings: preemergence; for Pigweed plant response rating (0 to 100 scale): visual injury approx. 10 days after treatment
How it was run: as §2

[8] = system: soybean; experiment: Test C preemergence; assay type: in vivo, Glycine max
How it was run: as §1

[9] = system: pigweed; experiment: Test C preemergence; assay type: in vivo, Amaranthus retroflexus
How it was run: as §1

[10] = system: nutsedge, yellow; experiment: Test C preemergence; assay type: in vivo, Cyperus esculentus
How it was run: as §1

[11] = system: sedge, umbrella; experiment: Test B flood; assay type: in vivo, Cyperus difformis; settings: 250 g ai/ha, visual rating on 0 to 100 scale (0 no effect, 100 complete control), 13 to 15 days
How it was run: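 Paddy-water application: seedlings at 2-leaf stage, flood depth 3 cm maintained for the test duration. Evaluation after 13–15 days in the greenhouse by eye relative to controls; 0–100 scale.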

[12] = system: foxtail, giant; experiment: Test A postemergence; assay type: in vivo, Setaria faberii
How it was run: as §2

[13] = system: morningglory; experiment: Test C preemergence; assay type: in vivo, Ipomoea coccinea
How it was run: as §1

[14] = system: corn; experiment: Test A postemergence; assay type: in vivo, Zea mays
How it was run: as §2

[15] = preemergence, 31 g ai/ha, visual rating, scale 0 to 100 (0 no effect, 100 complete control), 13 to 15 days
[16] = preemergence, 62 g ai/ha, 13 to 15 days, scale 0 to 100, 0 = no effect, 100 = complete control
[17] = preemergence, 125 g ai/ha, scale 0 to 100, 0 is no effect, 100 is complete control
[18] = 125 g ai/ha, visual injury, 0 to 100 scale, approx. 10 days
[19] = 500 g ai/ha, visual injury after approx. 10 days, 0 to 100 scale (0 no effect, 100 complete control)
[20] = Postemergence, 500 g ai/ha, visual rating after approx. 10 days, 0 to 100 scale (0 no effect, 100 complete control)
[21] = postemergence, 125 g ai/ha, about 10 days, visual rating on 0 to 100 scale (0 no effect, 100 complete control)
[22] = preemergence, 62 g ai/ha, scale 0 to 100 (0 no effect, 100 complete control), 13 to 15 days
[23] = preemergence, 125 g ai/ha, 13 to 15 days, scale 0 to 100, 0 = no effect, 100 = complete control
[24] = preemergence, 250 g ai/ha, scale 0 to 100, 0 is no effect, 100 is complete control
[25] = Postemergence, 125 g ai/ha, 0 to 100 scale, 0 no effect, 100 complete control
[26] = Postemergence, 500 g ai/ha, 0 to 100 scale (0 no effect, 100 complete control)
[27] = Preemergence, 16 g ai/ha, scale 0 to 100

CCCc1cc(C(=O)NCC)nn1Cc1ccnc(C(F)(F)F)c1 [Compound 95]
Plant response rating (scale of 0 to 100), Ryegrass, Italian ([1]; Preemergence, 250 g ai/ha): 100 | Ryegrass, Italian plant response rating [1, 15]: 50 | Plant response rating, Ryegrass, Italian [1, 16]: 85 | Ryegrass, Italian plant response rating [1, 17]: 95 | Plant response rating (scale of 0 to 100), Crabgrass, Large ([2]; Preemergence, 250 g ai/ha): 100 | Crabgrass, Large plant response rating [2, 15]: 98 | Plant response rating, Crabgrass, Large [2, 16]: 98 | Crabgrass, Large plant response rating [2, 17]: 98 | Morningglory plant response rating [3, 18]: 100 | Morningglory plant response rating [3, 19]: 100 | Velvetleaf plant response rating [4, 20]: 100 | Velvetleaf plant response rating [4, 21]: 90 | Plant response rating (scale of 0 to 100), Galium ([5]; Preemergence, 250 g ai/ha): 100 | Galium plant response rating [5, 15]: 100 | Plant response rating, Galium [5, 16]: 100 | Galium plant response rating [5, 17]: 100 | Morningglory plant response rating [6, 20]: 100 | Morningglory plant response rating [6, 21]: 90 | Pigweed plant response rating [7, 18]: 100 | Pigweed plant response rating [7, 19]: 100 | Plant response rating (scale of 0 to 100), Soybean ([8]; Preemergence, 250 g ai/ha): 98 | Soybean plant response rating [8, 15]: 80 | Plant response rating, Soybean [8, 16]: 90 | Soybean plant response rating [8, 17]: 95 | Plant response rating (scale of 0 to 100), Pigweed ([9]; Preemergence, 250 g ai/ha): 100 | Pigweed plant response rating [9, 15]: 100 | Plant response rating, Pigweed [9, 16]: 100 | Pigweed plant response rating [9, 17]: 100 | Plant response rating (scale of 0 to 100), Nutsedge, Yellow ([10]; Preemergence, 250 g ai/ha): 90 | Nutsedge, Yellow plant response rating [10, 15]: 50 | Plant response rating, Nutsedge, Yellow [10, 16]: 80 | Nutsedge, Yellow plant response rating [10, 17]: 85 | Plant response rating, Sedge, Umbrella [11]: 75 | Foxtail, Giant plant response rating [12, 20]: 100 | Foxtail, Giant plant response rating [12, 21]: 100 | Plant response rating (scale of 0 to 100), Morningglory ([13]; Preemergence, 250 g ai/ha): 100 | Morningglory plant response rating [13, 15]: 100 | Plant response rating, Morningglory [13, 16]: 100 | Morningglory plant response rating [13, 17]: 100 | Corn plant response rating [14, 20]: 100 | Corn plant response rating [14, 21]: 80

CCOc1cc(C(=O)NC(C)C)nn1Cc1ccnc(C(F)(F)F)c1 [Compound 188]
Ryegrass, Italian plant response rating [1, 15]: 70 | Ryegrass, Italian plant response rating [1, 22]: 90 | Plant response rating, Ryegrass, Italian [1, 23]: 90 | Ryegrass, Italian plant response rating [1, 24]: 90 | Crabgrass, Large plant response rating [2, 15]: 100 | Crabgrass, Large plant response rating [2, 22]: 100 | Plant response rating, Crabgrass, Large [2, 23]: 100 | Crabgrass, Large plant response rating [2, 24]: 100 | Morningglory plant response rating (0 to 100 scale) ([3]; 125 g ai/ha): 100 | Morningglory plant response rating [3, 19]: 100 | Velvetleaf plant response rating [4, 25]: 100 | Velvetleaf plant response rating [4, 26]: 100 | Galium plant response rating [5, 15]: 98 | Galium plant response rating [5, 22]: 100 | Plant response rating, Galium [5, 23]: 100 | Galium plant response rating [5, 24]: 100 | Morningglory plant response rating [6, 25]: 70 | Morningglory plant response rating [6, 26]: 100 | Pigweed plant response rating (0 to 100 scale) ([7]; 125 g ai/ha): 100 | Pigweed plant response rating [7, 19]: 100 | Soybean plant response rating [8, 15]: 90 | Soybean plant response rating [8, 22]: 90 | Plant response rating, Soybean [8, 23]: 95 | Soybean plant response rating [8, 24]: 98 | Pigweed plant response rating [9, 15]: 100 | Pigweed plant response rating [9, 22]: 100 | Plant response rating, Pigweed [9, 23]: 100 | Pigweed plant response rating [9, 24]: 100 | Nutsedge, Yellow plant response rating [10, 15]: 30 | Nutsedge, Yellow plant response rating [10, 22]: 65 | Plant response rating, Nutsedge, Yellow [10, 23]: 95 | Nutsedge, Yellow plant response rating [10, 24]: 98 | Plant response rating, Sedge, Umbrella [11]: 90 | Foxtail, Giant plant response rating [12, 26]: 90 | Foxtail, Giant plant response rating [12, 21]: 90 | Morningglory plant response rating [13, 15]: 98 | Morningglory plant response rating [13, 22]: 98 | Plant response rating, Morningglory [13, 23]: 98 | Morningglory plant response rating [13, 24]: 100 | Corn plant response rating [14, 26]: 100 | Corn plant response rating [14, 21]: 90

CCc1cc(C(=O)NOC(C)C)nn1Cc1ccnc(C(F)(F)F)c1 [Compound 101]
Plant response rating, Ryegrass, Italian [1, 27]: 0 | Ryegrass, Italian plant response rating [1, 15]: 30 | Plant response rating, Ryegrass, Italian [1, 16]: 60 | Ryegrass, Italian plant response rating [1, 17]: 100 | Plant response rating, Crabgrass, Large [2, 27]: 65 | Crabgrass, Large plant response rating [2, 15]: 80 | Plant response rating, Crabgrass, Large [2, 16]: 100 | Crabgrass, Large plant response rating [2, 17]: 100 | Morningglory plant response rating [3, 18]: 80 | Morningglory plant response rating [3, 19]: 100 | Velvetleaf plant response rating [4, 20]: 80 | Velvetleaf plant response rating [4, 21]: 50 | Plant response rating, Galium [5, 27]: 80 | Galium plant response rating [5, 15]: 80 | Plant response rating, Galium [5, 16]: 80 | Galium plant response rating [5, 17]: 80 | Morningglory plant response rating [6, 20]: 100 | Morningglory plant response rating [6, 21]: 100 | Pigweed plant response rating [7, 18]: 100 | Pigweed plant response rating [7, 19]: 100 | Plant response rating, Soybean [8, 27]: 0 | Soybean plant response rating [8, 15]: 5 | Plant response rating, Soybean [8, 16]: 40 | Soybean plant response rating [8, 17]: 50 | Plant response rating, Pigweed [9, 27]: 20 | Pigweed plant response rating [9, 15]: 80 | Plant response rating, Pigweed [9, 16]: 90 | Pigweed plant response rating [9, 17]: 100 | Plant response rating, Nutsedge, Yellow [10, 27]: 5 | Nutsedge, Yellow plant response rating [10, 15]: 5 | Plant response rating, Nutsedge, Yellow [10, 16]: 25 | Nutsedge, Yellow plant response rating [10, 17]: 75 | Plant response rating, Sedge, Umbrella [11]: 60 | Foxtail, Giant plant response rating [12, 20]: 90 | Foxtail, Giant plant response rating [12, 21]: 80 | Plant response rating, Morningglory [13, 27]: 40 | Morningglory plant response rating [13, 15]: 85 | Plant response rating, Morningglory [13, 16]: 100 | Morningglory plant response rating [13, 17]: 100 | Corn plant response rating [14, 20]: 100 | Corn plant response rating [14, 21]: 90

CCOc1cc(C(=O)NC2CC2)nn1Cc1ccnc(C(F)(F)F)c1 [Compound 189]
Ryegrass, Italian plant response rating [1, 15]: 40 | Ryegrass, Italian plant response rating [1, 22]: 90 | Plant response rating, Ryegrass, Italian [1, 23]: 90 | Ryegrass, Italian plant response rating [1, 24]: 90 | Crabgrass, Large plant response rating [2, 15]: 100 | Crabgrass, Large plant response rating [2, 22]: 100 | Plant response rating, Crabgrass, Large [2, 23]: 100 | Crabgrass, Large plant response rating [2, 24]: 100 | Morningglory plant response rating (0 to 100 scale) ([3]; 125 g ai/ha): 100 | Morningglory plant response rating [3, 19]: 100 | Velvetleaf plant response rating [4, 25]: 100 | Velvetleaf plant response rating [4, 26]: 100 | Galium plant response rating [5, 15]: 90 | Galium plant response rating [5, 22]: 95 | Plant response rating, Galium [5, 23]: 100 | Galium plant response rating [5, 24]: 100 | Morningglory plant response rating [6, 25]: 90 | Morningglory plant response rating [6, 26]: 100 | Pigweed plant response rating (0 to 100 scale) ([7]; 125 g ai/ha): 0 | Pigweed plant response rating [7, 19]: 0 | Soybean plant response rating [8, 15]: 20 | Soybean plant response rating [8, 22]: 95 | Plant response rating, Soybean [8, 23]: 98 | Soybean plant response rating [8, 24]: 98 | Pigweed plant response rating [9, 15]: 100 | Pigweed plant response rating [9, 22]: 100 | Plant response rating, Pigweed [9, 23]: 100 | Pigweed plant response rating [9, 24]: 100 | Nutsedge, Yellow plant response rating [10, 15]: 25 | Nutsedge, Yellow plant response rating [10, 22]: 80 | Plant response rating, Nutsedge, Yellow [10, 23]: 85 | Nutsedge, Yellow plant response rating [10, 24]: 95 | Plant response rating, Sedge, Umbrella [11]: 90 | Foxtail, Giant plant response rating [12, 26]: 90 | Foxtail, Giant plant response rating [12, 21]: 90 | Morningglory plant response rating [13, 15]: 95 | Morningglory plant response rating [13, 22]: 98 | Plant response rating, Morningglory [13, 23]: 98 | Morningglory plant response rating [13, 24]: 100 | Corn plant response rating [14, 26]: 100 | Corn plant response rating [14, 21]: 80
